Results: patent US20070078262A1, “Thiomorpholino steroid compounds, the use thereof for the preparation of meiosis-regulating medicaments and method for the preparation thereof” (SCHERING AKTIENGESELLSCHAFT, priority 2003, published 2007)
≈ marks a conversion by molar mass, not a printed value.

Columns and labels:
physchem = settings: water
[1] = tested on: in vitro fertilized ova (2-cell embryos); experiment: Retransfer study / fertility trial (in vitro fertilized 2-cell embryos transferred into foster mothers); format: in vivo, mice; settings: for No. of Implantation Spots: Odds / No. of Viable Fetuses: Odds: successes divided by failures; for No. of Implantation Spots: Failures: transferred ova minus implantation spots; for No. of Viable Fetuses: Failures: transferred ova minus viable fetuses; for Odds Ratio for comparison to FF-MAS, No. of Implantation Spots / Odds Ratio for comparison to FF-MAS, No. of Viable Fetuses: versus FF-MAS 10 μM
Description: In vitro fertilization was performed as described above for the IVF experiment.
One day before the retransfer female recipient mice (foster mothers) in pro-estrus cycle state were mated with vasectomized males in order to trigger pseudogestation. One day later a vaginal check was performed. Animals with a positive, sperm-free vaginal plug (successful mating) entered the study. This day was designated day 0 of gestation (=day 0 after the sterile copulation, day 0 p.c.). […] 2-cell embryos were transferred into the right tube of the foster mothers on day 0 after the sterile copulation under anesthesia. The contra-lateral tube remained unused (check for pseudogestation). The foster mothers were sacrified on day 19 of gestation. The fetuses were removed and examined. The ovaries and uteri were removed immediately to record the number of implantation sites, viable and dead fetuses and resorptions. Apparently non-pregnant uteri were placed in a 10% aqueous solution of ammonium sulfide for about 10 min to stain possible implantation sites in the endometrium. The viable fetuses were individually weighed and their sex determined by inspection of their gonads.
In a fertility trial 269 mice were randomized into 6 groups and implanted with 7-10 in vitro fertilized ova. The in vitro fertilization took place in the presence of vehicle (group 1) or of a substance (groups 2 to 6).
The fertility raising effect of the substances in comparison to the vehicle control was of main interest. Moreover, an improvement compared to the substance FF-MAS was also investigated.
Variables of primary interest are the number of implantation spots and the number of viable fetuses.
The data for implantation spots as well as for viable fetuses have to be considered to have binary character, i.e. it can be expressed in rates or in a number of successes and failures with respect to the number of transferred ova. Therefore, methods as outlined by D. Collett: “Modelling Binary Data”, 2nd edition, Chapman & Hall/CRC, Boca Raton, constitute appropriate approaches to the data analysis.
The odds ratio of one group as compared to the other is defined as: odds ratio (group 1, group 2)=or1,2=odds (group 1)/odds (group 2)
where the odds of a group can be estimated by the number of successes divided by the number of failures in that group.
To reach statements about the significance of any findings, 95% confidence-intervals for the odds ratios are computed as: [ exp(log(or1,2)[…]1.96·se(log(or1,2))); exp(log(or1,2)+1.96·se(log(or1,2)))]
wherein se(log(or1,2)) is the standard error of the log odds ratio (see D. Collett (2003) for the corresponding formula).
As a basis for the computation of odds ratios, the number of successes (i.e., the number of implantation spots of number of viable fetuses) and failures (i.e., the number of transferred ova minus the number of implantation spots or number of viable fetuses) are computed for all groups.

mouse oocytes = experiment: In vitro fertilization (IVF) after in vitro maturation of oocytes; format: cell-based, mice (C57BL/6J×DBA/2J F1)
Description: Changes in the subsequent IVF are therefore probably due to effects of the test compounds on cytoplasmic maturation.
Immature female mice (C57BL/6J×DBA/2J F1) in the age of 21-24 days were used as oocyte donors. Animals were given an i.p. injection of 10 IU pregnant mare serum gonadotropin (PMSG) to induce follicular growth. Animals were killed by cervical dislocation 48 hours later and the ovaries were dissected out. As sperm donors eight week old male mice (C57BL/6J×DBA/2J F1) were used.
Oocytes were isolated from the ovaries by manual rupture of the follicles using a pair of 27-gauge needles. Spherical naked oocytes (NkO) and CEOs displaying an intact GV were selected and placed in α-minimum essential medium (α-MEM without ribonucleosides, Gibco BRL, Gaithersburg; Cat. No. 22561) supplemented with 8 mg/ml human serum albumin (HSA), 0.23 mM pyruvate, 2 mM glutamine, 100 IU/ml penicillin and 100 μg/ml streptomycin.
The oocytes were rinsed three times in culture medium without oil overlay in 4-well multidishes containing 0.4 ml of the respective oocyte culture medium.
The oocyte culture medium was supplemented with 6.4% Fetal Bovine Serum (FBS). Solutions of novel compound IA and of the two compounds in comparison as mentioned were prepared from a stock solution containing 1 mg/ml of compound dissolved in absolute ethanol. The control group was cultured with a corresponding amount of ethanol.
After a culture time of 18-19 hours oocytes were further processed for in vitro fertilization. […] Oocytes were briefly washed without any test compound and subsequently transferred to the insemination dishes prepared in advance, which contained approximately 600.000 capacitated sperm cells per 500 μl IVF medium (obtained from the epididymides of male mice). The dishes were then incubated under defined gas conditions (5% CO2 in air) at 37° C. in a modified α-MEM IVF medium supplemented with 8 mg/ml HSA, 0.23 mM pyruvate, 100 IU penicillin/ml and 100 μg streptomycin/ml as described above for oocyte maturation.
Examination of the oocytes was carried out 22-24 hours after insemination in order to check fertilization and to record the number of pronucleus (PN) and 2-cell stage embryos. The fertilization rate was determined as the number of oocytes that had reached the PN or 2-cell embryo stage, relative to the total number inseminated.

C[C@H](CN1CCSCC1)[C@H]1CC=C2C3=C(CC[C@@]21C)[C@@]1(C)CC[C@H](O)C(C)(C)[C@@H]1CC3 [Compound IA, (20S)-20-[(thiomorpholin-4-yl)methyl]-4,4-dimethyl-5α-pregna-8,14-dien-3β-ol]
solubility (physchem): ~4 µg/mL (≈ 9.01 µM) | No. of Implantation Spots: Success ([1]; 1 μM): 120 | No. of Viable Fetuses: Success ([1]; 1 μM): 51 | Odds Ratio for comparison to vehicle control, No. of Implantation Spots ([1]; 1 μM): 1.51 | Odds Ratio for comparison to vehicle control, No. of Viable Fetuses ([1]; 1 μM): 1.70 | increase of the odds of a successful implantation versus vehicle control ([1]; 1 μM): 51% | No. of Implantation Spots: Odds ([1]; 1 μM): 0.38 | No. of Viable Fetuses: Odds ([1]; 1 μM): 0.13 | No. of Implantation Spots: Failures ([1]; 1 μM): 317 | No. of Viable Fetuses: Failures ([1]; 1 μM): 386 | Odds Ratio for comparison to FF-MAS, No. of Implantation Spots ([1]; 1 μM): 1.27 | Odds Ratio for comparison to FF-MAS, No. of Viable Fetuses ([1]; 1 μM): 1.15 | No. of Implantation Spots: Success ([1]; 10 μM): 123 | No. of Viable Fetuses: Success ([1]; 10 μM): 40 | Odds Ratio for comparison to vehicle control, No. of Implantation Spots ([1]; 10 μM): 1.55 | Odds Ratio for comparison to vehicle control, No. of Viable Fetuses ([1]; 10 μM): 1.29 | better chance (odds) of a successful implantation versus vehicle control ([1]; 10 μM): 55% | No. of Implantation Spots: Odds ([1]; 10 μM): 0.39 | No. of Viable Fetuses: Odds ([1]; 10 μM): 0.10 | No. of Implantation Spots: Failures ([1]; 10 μM): 317 | No. of Viable Fetuses: Failures ([1]; 10 μM): 400 | Odds Ratio for comparison to FF-MAS, No. of Implantation Spots ([1]; 10 μM): 1.30 | Odds Ratio for comparison to FF-MAS, No. of Viable Fetuses ([1]; 10 μM): 0.87 | shows significant improvement of odds versus vehicle control, number of implantation spots ([1]; 95% confidence interval of odds ratio, all doses tested): significant improvement of odds | implantation rate per transferred 2-cell embryos (FIG. 4) ([1]; FF-MAS 10 μM, compound IA 1 μM and 10 μM): higher numbers | increase of the odds for a success in terms of viable fetuses versus vehicle control ([1]; lower doses (1 μM)): 70% | effect on 2-cell and blastocyst rate (mouse oocytes; already at 0.1 μM, tends to be even higher at 1 μM): beneficial effect | fertilization rates of mouse oocytes compared to vehicle control (FIG. 3) (mouse oocytes; in vitro maturation without hypoxanthine, then IVF, n=18): higher fertilization rates
